US7745152B2, “Method for determining genotoxicity” (priority 2004, dated 2010)
Structures can show the parent of a compound that is named as a salt.

Tests used:
DDA3 = conditions: cited from earlier work
4833427G06Rik mRNA = assay: RT-PCR assay of 4833427G06Rik (Dog1) mRNA in C2C12 cells; type: cell-based, mouse; conditions: C2C12, 24 hour drug, 18 hour differentiation; relative to vehicle
Dda3 mRNA = assay: RT-PCR assay of Dda3 mRNA in C2C12 cells; type: cell-based, mouse; conditions: C2C12, 24 hour drug, 18 hour differentiation; relative to vehicle
C2C12 cells [1] = conditions: mouse, 24 h
C2C12 cells [2] = assay: Genomic assay: gene expression analysis (Affymetrix Murine Genome MOE430) in C2C12 cells induced to differentiate
Protocol: Three independent replicates were generated for each drug and time point. Sample processing was carried out according to protocols described in the Affymetrix Expression Analysis Technical Manual. Briefly, total RNA was isolated from cells by the acid guanidinium thiocyanate-phenol-chloroform extraction method (Trizol®, Invitrogen, Carlsbad, Calif.). Twice purified poly(A+) RNA was isolated and reverse transcribed using a T7-promoter coupled oligo(dT) primer, followed by in vitro transcription. The labeled samples were applied to the Affymetrix Murine Genome MOE430 set and were hybridized overnight at 45° C./60 rpm, washed using a FS450 Fluidics station, and scanned on a GS3000 scanner. The resulting image files were analyzed using Affymetrix software (Microarray Analysis Suite version 5.0).
To measure the effect of drug treatment on cellular gene expression, replicate data obtained from each drug and time point were compared with replicates for vehicle-matched controls using the Student t-test. The gene expression levels were Log transformed before applying the Student t-test. The fold change of the average expression level between the control and drug-treated cells was also calculated. […] A gene was considered expressed if the Affymetrix software determined that the gene was “present” in two out of the three replicates. This ensured that true expression changes were identified, and could be distinguished from background variability. Second, the calculated expression change for each of five tested drugs was at least 2 fold, and the calculated p-value for the expression change using the Student t-test was less than 0.01.

[3] = C2C12, 24 h drug (μg/ml: BLEO 0.5, CIS 0.6, ETOP 0.5, MMS 0.008, MNNG 4, VINC 0.6), then 6, 18 or 24 h differentiation, vs DMSO

CO[C@@]12[C@H](COC(N)=O)C3=C(C(=O)C(C)=C(N)C3=O)N1C[C@@H]1N[C@@H]12 [Mitomycin C]
DDA3 expression in NIH3T3 cells exposed to DNA damaging agents (DDA3): upregulated

CC[C@]1(O)C[C@@H]2CN(CCc3c([nH]c4ccccc34)[C@@](C(=O)OC)(c3cc4c(cc3OC)N(C)[C@H]3[C@@](O)(C(=O)OC)[C@H](OC(C)=O)[C@]5(CC)C=CCN6CC[C@]43[C@@H]65)C2)C1 [Vinblastine sulfate]
relative expression of 4833427G06Rik mRNA (4833427G06Rik mRNA): much larger increase in expression of these indicator genes than did vincristine
relative expression of Dda3 mRNA (Dda3 mRNA): much larger increase in expression of these indicator genes than did vincristine
Lowest effective dose (C2C12 cells [1]): 0.0006 µg/mL

CC[C@]1(O)C[C@H]2CN(CCc3c([nH]c4ccccc34)[C@@](C(=O)OC)(c3cc4c(cc3OC)N(C=O)[C@H]3[C@@](O)(C(=O)OC)[C@H](OC(C)=O)[C@]5(CC)C=CCN6CC[C@]43[C@@H]65)C2)C1 [Vincristine sulfate]
Fold change in expression: 0610013D04 Rik, RIKEN cDNA (C2C12 cells [2]; [3]): 2.00 fold
Fold change in expression: 1600013K19 Rik, RIKEN cDNA (C2C12 cells [2]; [3]): 0.98 fold
Fold change in expression: 2610005B21 Rik, RIKEN cDNA (C2C12 cells [2]; [3]): 0.81 fold
Fold change in expression: 2610019I03 RIK, RIKEN cDNA (C2C12 cells [2]; [3]): 0.76 fold
Fold change in expression: 2610509G12 Rik, RIKEN cDNA (C2C12 cells [2]; [3]): 0.55 fold
Fold change in expression: 2810417H13 Rik, RIKEN cDNA (C2C12 cells [2]; [3]): 0.96 fold
Fold change in expression: 4833427G06 Rik, RIKEN cDNA (C2C12 cells [2]; [3]): 0.98 fold
Fold change in expression: 6530401L14 Rik, RIKEN cDNA (C2C12 cells [2]; [3]): 0.53 fold
Fold change in expression: 9030617O03 Rik, RIKEN cDNA (C2C12 cells [2]; [3]): 1.20 fold
Fold change in expression: Anxa8, Annexin A8 (C2C12 cells [2]; [3]): 1.80 fold
Fold change in expression: Asflb, ASF1 anti-silencing function 1 homolog B (Saccharomyces) (C2C12 cells [2]; [3]): 0.71 fold
Fold change in expression: Birc5, Baculoviral IAP repeat-containing 5 (C2C12 cells [2]; [3]): 0.87 fold
Fold change in expression: Brca1, Breast cancer 1 (C2C12 cells [2]; [3]): 0.51 fold
Fold change in expression: Calmbp1, Calmodulin binding protein 1 (C2C12 cells [2]; [3]): 0.40 fold
Fold change in expression: Capn6, Calpain 6 (C2C12 cells [2]; [3]): 0.83 fold
Fold change in expression: Ccna2, Cyclin A2 (C2C12 cells [2]; [3]): 0.82 fold
Fold change in expression: Ccng1, Cyclin G1 (C2C12 cells [2]; [3]): 1.80 fold
Fold change in expression: Cilp, Cartilage intermediate layer pro (C2C12 cells [2]; [3]): 0.77 fold
Fold change in expression: Cks2, CDC28 protein kinase regulatory subunit 2 (C2C12 cells [2]; [3]): 0.78 fold
Fold change in expression: D4Ertd421e, DNA segment, Chr 4, ERATO Doi 421, expressed (C2C12 cells [2]; [3]): 0.64 fold
Fold change in expression: Dda3-pending, Differential display and activated by p53 (C2C12 cells [2]; [3]): 2.00 fold
Fold change in expression: E2f7, E2F transcription factor 7 (C2C12 cells [2]; [3]): 0.63 fold
Fold change in expression: E030024M05 Rik, RIKEN cDNA (C2C12 cells [2]; [3]): 1.20 fold
Fold change in expression: E130315B21 Rik, RIKEN cDNA (C2C12 cells [2]; [3]): 0.70 fold
Fold change in expression: Ephx1, Epoxide hydrolase 1 (microsomal xenobiotic hydrolase) (C2C12 cells [2]; [3]): 1.10 fold
Fold change in expression: Fbxo5, f-box only protein 31 (C2C12 cells [2]; [3]): 0.54 fold
Fold change in expression: Foxm1, Forkhead box M1 (C2C12 cells [2]; [3]): 0.68 fold
Fold change in expression: Gmnn, Geminin (C2C12 cells [2]; [3]): 0.65 fold
Fold change in expression: Gnpi, Glucosamine-6-phosphate deaminase (C2C12 cells [2]; [3]): 1.60 fold
Fold change in expression: Hgf, Hepatocyte growth factor (scatter factor) (C2C12 cells [2]; [3]): 2.00 fold
Fold change in expression: Hmgb2, High mobility group box 2 (C2C12 cells [2]; [3]): 0.57 fold
Fold change in expression: Hmgb3, High mobility group box 3 (C2C12 cells [2]; [3]): 0.67 fold
Fold change in expression: Hmmr, Hyaluronan mediated motility receptor (RHAMM) (C2C12 cells [2]; [3]): 0.52 fold
Fold change in expression: Kifl1, Kinesin 11 (C2C12 cells [2]; [3]): 0.46 fold
Fold change in expression: Lek1, Leucine, glutamic acid, lysine family 1 protein (C2C12 cells [2]; [3]): 0.45 fold
Fold change in expression: Ly6e, Lymphocyte antigen 6 complex, locus E (C2C12 cells [2]; [3]): 1.30 fold
Fold change in expression: M-phosph1, M-phase phosphoprotein (C2C12 cells [2]; [3]): 0.37 fold
Fold change in expression: MGC:32192, Mus musculus cDNA clone MGC: 32192 IMAGE: 5006129 (C2C12 cells [2]; [3]): 0.71 fold
Fold change in expression: Mad2l1, MAD2 (mitotic arrest deficient, homolog)-like 1 (yeast) (C2C12 cells [2]; [3]): 0.64 fold
Fold change in expression: Mad3, Max dimerization protein 3 (C2C12 cells [2]; [3]): 0.89 fold
Fold change in expression: Mcm3, Minichromosome maintenance deficient 3 (Saccharomyces) (C2C12 cells [2]; [3]): 0.69 fold
Fold change in expression: Mcmd4, Minichromosome maintenance deficient 4 homolog (C2C12 cells [2]; [3]): 0.64 fold
Fold change in expression: Mki67, Antigen identified by MAb Ki67 (C2C12 cells [2]; [3]): 0.43 fold
Fold change in expression: Mmhead, Mus musculus 15 day embryo head cDNA clone (C2C12 cells [2]; [3]): 0.95 fold
Fold change in expression: Nos3, Nitric oxide synthase 3, endothelial cell (C2C12 cells [2]; [3]): 1.30 fold
Fold change in expression: Np95, Nuclear protein 95 (C2C12 cells [2]; [3]): 0.71 fold
Fold change in expression: Nusap1, Nucleolar and spindle associated protein 1 (C2C12 cells [2]; [3]): 0.56 fold
Fold change in expression: Osbp16, Oxysterol binding protein-like 6 (C2C12 cells [2]; [3]): 1.10 fold
Fold change in expression: Pbk, PDZ binding kinase (C2C12 cells [2]; [3]): 0.62 fold
Fold change in expression: Pcna, Proliferating cell nuclear antigen (C2C12 cells [2]; [3]): 0.70 fold
Fold change in expression: Phex, Phosphate regulating neutral endopeptidase (X chromosome) (C2C12 cells [2]; [3]): 0.67 fold
Fold change in expression: Plf, Proliferin (C2C12 cells [2]; [3]): 1.10 fold
Fold change in expression: Pola1, DNA polymerase alpha 1, 180 kDa (C2C12 cells [2]; [3]): 0.51 fold
Fold change in expression: Prc1, Protein regulator of cytokinesis 1 (C2C12 cells [2]; [3]): 0.63 fold
Fold change in expression: Prelp, Proline arginine-rich end leucine-rich repeat (C2C12 cells [2]; [3]): 0.58 fold
Fold change in expression: Prim1, DNA primase, p49 subunit (C2C12 cells [2]; [3]): 0.54 fold
Fold change in expression: Rad51ap1, RAD51-associated protein 1 (C2C12 cells [2]; [3]): 0.59 fold
Fold change in expression: Rbl1, Retinoblastoma-like 1 (p107) (C2C12 cells [2]; [3]): 0.67 fold
Fold change in expression: Serpine1, Ser (or Cys) proteinase inhibitor, clade E, member 1 (C2C12 cells [2]; [3]): 1.00 fold
Fold change in expression: Sesn2, Sestrin 2 (C2C12 cells [2]; [3]): 2.38 fold
Fold change in expression: Shcbp1, Shc SH2-domain binding protein 1 (C2C12 cells [2]; [3]): 0.52 fold
Fold change in expression: Slc35a5, Solute carrier family 35, member A5 (C2C12 cells [2]; [3]): 1.30 fold
Fold change in expression: Smc2l1, SMC2 structural maintenance of chromosomes 2-like 1 (C2C12 cells [2]; [3]): 0.75 fold
Fold change in expression: Stk18, Serine/threonine kinase 18 (C2C12 cells [2]; [3]): 0.63 fold
Fold change in expression: Tacc3, Transforming, acidic coiled-coil containing protein 3 (C2C12 cells [2]; [3]): 0.73 fold
Fold change in expression: Tagln, Transgelin (smooth muscle 22 protein) (C2C12 cells [2]; [3]): 0.84 fold
Fold change in expression: Tk1, Thymidine kinase 1 (C2C12 cells [2]; [3]): 0.62 fold
Fold change in expression: Top2a, Topoisomerase (DNA) II alpha (C2C12 cells [2]; [3]): 0.52 fold
Fold change in expression: Trp53inp1, Transformation related protein, 53 inducible nuclear protein 1 (C2C12 cells [2]; [3]): 1.60 fold
Fold change in expression: Usp30, Ubiquitin specific protease 30 (C2C12 cells [2]; [3]): 2.00 fold
Fold change in expression: Wig1, Wild-type p53-induced gene 1 (C2C12 cells [2]; [3]): 1.20 fold
pattern of gene expression changes (C2C12 cells [2]; C2C12, vincristine sulfate 0.6 μg/ml 24 h, relative to the five other drugs tested): induced a distinct pattern of gene expression changes relative to the five other drugs tested
Fold change in expression: Slc19a2, Solute carrier family 19 (thiamine transporter), member 2 (C2C12 cells [2]; first Slc19a2 entry (r16), C2C12, 24 h drug (μg/ml: BLEO 0.5, CIS 0.6, ETOP 0.5, MMS 0.008, MNNG 4, VINC 0.6), then 6, 18 or 24 h differentiation, vs DMSO): 1.40 fold
Fold change in expression: Slc19a2, Solute carrier family 19 (thiamine transporter), member 2 (C2C12 cells [2]; second Slc19a2 entry (r72), C2C12, 24 h drug (μg/ml: BLEO 0.5, CIS 0.6, ETOP 0.5, MMS 0.008, MNNG 4, VINC 0.6), then 6, 18 or 24 h differentiation, vs DMSO): 1.10 fold
Lowest effective dose (C2C12 cells [1]): 0.002 µg/mL

COc1cccc2c1C(=O)c1c(O)c3c(c(O)c1C2=O)C[C@@](O)(C(=O)CO)C[C@@H]3O[C@H]1C[C@H](N)[C@H](O)[C@H](C)O1 [adriamycin]
DDA3 expression in NIH3T3 cells exposed to DNA damaging agents (DDA3): upregulated
